Test results as given in article PMC8957246, “Synthesis and diverse biological activity profile of triethylammonium isatin-3-hydrazones” (ADMET & DMPK, 2022).
Where two headings read alike, the source gives them in different places.

Experiments:
Format in all cases: cell-based
[1] = system: Bacillus cereus ATCC 10702 NCTC 8035; test: Antimicrobial activity, serial dilution (MIC/MBC), Bc
[2] = system: Staphylococcus aureus ATCC 6538P FDA 209P; test: Antimicrobial activity, serial dilution (MIC/MBC), Sa
[3] = system: Phytophthora cactorum VKM F-985; test: Fungicidal activity, radial growth inhibition, P. cactorum; conditions: for EC50: Phytophthora cactorum, 168 h, day 7, EC50 = 50C/I, read-out: EC50, μg/mL at day 7
Description: Plant pathogenic bacterial strains Micrococcus luteus B-109, Pectobacterium atrosepticum 1043, Pectobacterium carotovorum subsp. carotovorum MI, Pseudomonas fluorescens EL-2.1, and Xanthomonas campestris B-610 and fungal strain Fusarium oxysporum IBPPM 543 were obtained from the specialized scientific culture collection of IBPPM RAS (WFCC no. 975, WDCM no. 1021) (CM IBPPM). Pathogenic fungus Phytophthora cactorum VKM F-985 provided by the All-Russian Collection of Microorganisms (VKM) and deposited at A.E. Favorsky Irkutsk Institute of Chemistry, SB RAS, was also used as test organism. Bacteria M. luteus, P. carotovorum subsp. carotovorum, P. atrosepticum, and Ps. fluorescens were grown in meat-peptone medium (BP), and X. campestris was grown in the medium with glucose, yeast extract, and calcium carbonate (GYCa). Solid media contained Bacto agar (18 g/L); pH was adjusted to 7.2-7.4. All bacterial cultures were grown at 28°C. The mycelial cultures of F. oxysporum and P. cactorum were grown on a glucose-peptone-yeast (GPY) nutrient medium at 27 °C. For inoculum preparation, both fungal strains were initially grown on the agar GPY in Petri dishes and then transferred into the seed medium by punching out 5 mm of the agar plate culture with a self-designed cutter.
For the fungicidal activity analysis, radial growth (colony diameters) of the fungi on a solid medium in the absence and in the presence of the compounds 3a,c-g solutions at various concentrations were compared. The method consisted of the following: sterile, melted and then cooled to about 60°C GPY agar medium (20.0 ml) was mixed with the precisely measured volumes of the solutions under question, and poured into a sterile Petri dish (90 mm i.d.). After solidification of GPY agar, the media were inoculated by the fungus using 10-day-old cultures of F. oxysporum or P. cactorum. The inoculation was done by transferring a 5-mm (i.d.) GPY-agar block covered with mycelium to the center of the Petri dish followed by incubation in a thermostat at 27°C. The fungicidal effect was scored by the size of mycelium colony on a Petri dish compared to the control without fungicidal admixtures to GPY agar. Each treatment was performed in at least four replicates in two independent experiments. The observation period ended when the control Petri dish was filled with mycelium (usually after 12 days). The inhibition of the phytopathogen colony growth by the compounds 3a,c-g or fludioxonil solutions was calculated as a percentage by which the mycelium radial propagation was decreased compared to the unaffected control, the latter was taken as 100 % of growth (or zero percent of inhibition). The EC50 value was calculated as the compound concentration at which the radial growth of the fungus colony was decreased by 50 % relative to the non-fungicidal control, according to the formula EC50 = 50C/I based on the approach developed e.g., in [34, 35].
The solutions of tested compounds were prepared with a concentration of 2 mmol/l (stock solution). For comparison, test compounds were also commonly applied disinfecting agents and antibiotics.

[4] = Staphylococcus aureus, read-out: MBC (converted)
[5] = C 1.26 μg/mL, age of the fungus 3 days
[6] = C 1.26 μg/mL, age of the fungus 5 days
[7] = C 1.26 μg/mL, age of the fungus 7 days
[8] = C 1.26 μg/mL, age of the fungus 9 days
[9] = C 1.26 μg/mL, age of the fungus 12 days
[10] = C 3.15 μg/mL, age of the fungus 3 days
[11] = C 3.15 μg/mL, age of the fungus 5 days
[12] = C 3.15 μg/mL, age of the fungus 7 days
[13] = C 3.15 μg/mL, age of the fungus 9 days
[14] = C 3.15 μg/mL, age of the fungus 12 days
[15] = C 6.30 μg/mL, age of the fungus 3 days
[16] = C 6.30 μg/mL, age of the fungus 5 days
[17] = C 6.30 μg/mL, age of the fungus 7 days
[18] = C 6.30 μg/mL, age of the fungus 9 days
[19] = C 6.30 μg/mL, age of the fungus 12 days
[20] = C 9.45 μg/mL, age of the fungus 3 days
[21] = C 9.45 μg/mL, age of the fungus 5 days
[22] = C 9.45 μg/mL, age of the fungus 7 days
[23] = C 9.45 μg/mL, age of the fungus 9 days
[24] = C 9.45 μg/mL, age of the fungus 12 days
[25] = C 12.60 μg/mL, age of the fungus 3 days
[26] = C 12.60 μg/mL, age of the fungus 5 days
[27] = C 12.60 μg/mL, age of the fungus 7 days
[28] = C 12.60 μg/mL, age of the fungus 9 days
[29] = C 12.60 μg/mL, age of the fungus 12 days

CC[N+](CC)(CC)CC(=O)N/N=C1\C(=O)N(Cc2cc(C(C)(C)C)c(O)c(C(C)(C)C)c2)c2cccc(Br)c21 [Compound 3e, 2-(2-(1-(3,5-Di-tert-butyl-4-hydroxybenzyl)-4-bromo-2-oxoindolin-3-ylidene)hydrazinyl)-N,N,N-triethyl-2-oxoethanammonium bromide]
MBC ([1]; Bacillus cereus): 284 µM | MIC ([1]; Bacillus cereus, read-out: MIC): 71 ± 6.2 µM | MIC ([2]; Staphylococcus aureus): 8.9 ± 0.7 µM | MBC [2, 4]: 17.7 µM | Inhibition value, I (%) ([3]; C 1.36 μg/mL, age of the fungus 3 days): 8% | Inhibition value, I (%) ([3]; C 1.36 μg/mL, age of the fungus 5 days): 14% | Inhibition value, I (%) ([3]; C 1.36 μg/mL, age of the fungus 7 days): 22% | Inhibition value, I (%) ([3]; C 1.36 μg/mL, age of the fungus 9 days): 10% | Inhibition value, I (%) ([3]; C 1.36 μg/mL, age of the fungus 12 days): 3% | Inhibition value, I (%) ([3]; C 3.41 μg/mL, age of the fungus 3 days): 13% | Inhibition value, I (%) ([3]; C 3.41 μg/mL, age of the fungus 5 days): 21% | Inhibition value, I (%) ([3]; C 3.41 μg/mL, age of the fungus 7 days): 34% | Inhibition value, I (%) ([3]; C 3.41 μg/mL, age of the fungus 9 days): 12% | Inhibition value, I (%) ([3]; C 3.41 μg/mL, age of the fungus 12 days): 5% | Inhibition value, I (%) ([3]; C 6.81 μg/mL, age of the fungus 3 days): 17% | Inhibition value, I (%) ([3]; C 6.81 μg/mL, age of the fungus 5 days): 33% | Inhibition value, I (%) ([3]; C 6.81 μg/mL, age of the fungus 7 days): 38% | Inhibition value, I (%) ([3]; C 6.81 μg/mL, age of the fungus 9 days): 16% | Inhibition value, I (%) ([3]; C 6.81 μg/mL, age of the fungus 12 days): 7% | Inhibition value, I (%) ([3]; C 10.22 μg/mL, age of the fungus 3 days): 39% | Inhibition value, I (%) ([3]; C 10.22 μg/mL, age of the fungus 5 days): 40% | Inhibition value, I (%) ([3]; C 10.22 μg/mL, age of the fungus 7 days): 53% | Inhibition value, I (%) ([3]; C 10.22 μg/mL, age of the fungus 9 days): 28% | Inhibition value, I (%) ([3]; C 10.22 μg/mL, age of the fungus 12 days): 18% | Inhibition value, I (%) ([3]; C 13.62 μg/mL, age of the fungus 3 days): 45% | Inhibition value, I (%) ([3]; C 13.62 μg/mL, age of the fungus 5 days): 62% | Inhibition value, I (%) ([3]; C 13.62 μg/mL, age of the fungus 7 days): 72% | Inhibition value, I (%) ([3]; C 13.62 μg/mL, age of the fungus 9 days): 70% | Inhibition value, I (%) ([3]; C 13.62 μg/mL, age of the fungus 12 days): 66% | EC50 [3]: 3.1 µg/mL

CC[N+](CC)(CC)CC(=O)N/N=C1\C(=O)N(Cc2cc(C(C)(C)C)c(O)c(C(C)(C)C)c2)c2c1ccc(C)c2C [Compound 3d, 2-(2-(1-(3,5-Di-tert-butyl-4-hydroxybenzyl)-6,7-dimethyl-2-oxoindolin-3-ylidene)hydrazinyl)-N,N,N-triethyl-2-oxoethanammonium bromide]
MBC ([1]; Bacillus cereus): 198 µM | MIC ([1]; Bacillus cereus, read-out: MIC): 49.6 ± 3.9 µM | MIC ([2]; Staphylococcus aureus): 3.1 ± 0.2 µM | MBC [2, 4]: 12.4 µM | Inhibition value, I (%) [3, 5]: 18% | Inhibition value, I (%) [3, 6]: 17% | Inhibition value, I (%) [3, 7]: 5% | Inhibition value, I (%) [3, 8]: 0% | Inhibition value, I (%) [3, 9]: 0% | Inhibition value, I (%) [3, 10]: 23% | Inhibition value, I (%) [3, 11]: 18% | Inhibition value, I (%) [3, 12]: 14% | Inhibition value, I (%) [3, 13]: 6% | Inhibition value, I (%) [3, 14]: 5% | Inhibition value, I (%) [3, 15]: 29% | Inhibition value, I (%) [3, 16]: 19% | Inhibition value, I (%) [3, 17]: 15% | Inhibition value, I (%) [3, 18]: 8% | Inhibition value, I (%) [3, 19]: 7% | Inhibition value, I (%) [3, 20]: 31% | Inhibition value, I (%) [3, 21]: 20% | Inhibition value, I (%) [3, 22]: 17% | Inhibition value, I (%) [3, 23]: 9% | Inhibition value, I (%) [3, 24]: 8% | Inhibition value, I (%) [3, 25]: 50% | Inhibition value, I (%) [3, 26]: 50% | Inhibition value, I (%) [3, 27]: 51% | Inhibition value, I (%) [3, 28]: 48% | Inhibition value, I (%) [3, 29]: 35% | EC50 [3]: 11.2 µg/mL

CCc1cccc2c1N(Cc1cc(C(C)(C)C)c(O)c(C(C)(C)C)c1)C(=O)/C2=N\NC(=O)C[N+](CC)(CC)CC [Compound 3c, 2-(2-(1-(3,5-Di-tert-butyl-4-hydroxybenzyl)-7-ethyl-2-oxoindolin-3-ylidene)hydrazinyl)-N,N,N-triethyl-2-oxoethanammonium bromide]
MIC [1]: 24.8 ± 1.9 µM | MBC ([1]; Bacillus cereus): 99.3 µM | MIC ([1]; Bacillus cereus, read-out: MIC): ~25 µM | MBC [2]: 6.2 ± 0.5 µM | MIC ([2]; Staphylococcus aureus): 3.1 ± 0.2 µM | MBC [2, 4]: 6.2 µM | Inhibition value, I (%) [3, 5]: 17% | Inhibition value, I (%) [3, 6]: 28% | Inhibition value, I (%) [3, 7]: 30% | Inhibition value, I (%) [3, 8]: 12% | Inhibition value, I (%) [3, 9]: 3% | Inhibition value, I (%) [3, 10]: 29% | Inhibition value, I (%) [3, 11]: 31% | Inhibition value, I (%) [3, 12]: 38% | Inhibition value, I (%) [3, 13]: 20% | Inhibition value, I (%) [3, 14]: 16% | Inhibition value, I (%) [3, 15]: 33% | Inhibition value, I (%) [3, 16]: 44% | Inhibition value, I (%) [3, 17]: 45% | Inhibition value, I (%) [3, 18]: 28% | Inhibition value, I (%) [3, 19]: 20% | Inhibition value, I (%) [3, 20]: 39% | Inhibition value, I (%) [3, 21]: 45% | Inhibition value, I (%) [3, 22]: 48% | Inhibition value, I (%) [3, 23]: 41% | Inhibition value, I (%) [3, 24]: 36% | Inhibition value, I (%) [3, 25]: 50% | Inhibition value, I (%) [3, 26]: 56% | Inhibition value, I (%) [3, 27]: 61% | Inhibition value, I (%) [3, 28]: 58% | Inhibition value, I (%) [3, 29]: 48% | EC50 [3]: 2.1 µg/mL
